What was measured:
[1] = tested on: primary human lung fibroblasts; test: LPA-induced chemotaxis assay; assay type: cell-based; conditions: 1 µM LPA chemoattractant; 6 h preincubation; read-out: IC50 inhibition of fibroblast chemotaxis
Description: Chemotaxis assay: Primary human lung fibroblasts were obtained from ATCC (Cat # PCS-201-020) and cultured in fibroblast media as per ATCC directions. Fibroblasts were serum starved overnight in basal fibroblast media. Cells were then lifted using CellStripper, centrifuged at 500 x g for 10 min, then resuspended in basal media. […] The receiving chamber contained 1 µM LPA. Chemotaxis was quantified as per Cell Biolabs, Inc instructions on a Flexstation 3 (Molecular Devices).

[2] = tested on: primary human lung fibroblasts; test: TGFβ1- or LPA-induced myofibroblast transformation (αSMA, COL1A1); assay type: cell-based; conditions: PIPE-791 1 µM
Description: TGFβ1 was used at 5 ng/mL. In addition to COL1A1 immunostaining, cells were co-immunostained with aSMA followed by a goat anti-rabbit Alexa647 secondary antibody.

[3] = Rat plasma pharmacokinetics after oral dose; assay type: in vivo; conditions: 10 mg/kg oral, n=2
Description: This distinct, long-lived pharmacokinetic profile would support a dosing frequency less than that of other LPAR1 antagonists described in the literature.
Plasma and lung homogenate samples were thawed and further diluted as necessary with naïve mouse plasma or naïve lung homogenate matrix. […] Plasma drug concentrations were calculated by comparison of peak area ratios of analyte/IS to the prepared calibration standards using Sciex Analyst software.

[4] = tested on: mouse alveolar macrophages; test: IL-1β release of alveolar macrophages from orally dosed mice, ex vivo LPS; assay type: in vivo; conditions: 3 mg/kg oral, 24 h before isolation; with and without ex vivo LPS
Description: 1.5 mL DPBS was injected into lungs and BAL fluid aspirated. Cells were plated in at 40,000 cells/well and stimulated first with 500 ng/mL LPS for 4 h then and 1 µM LPA for an additional hour at 37 °C. Plates were spun down and supernatant analyzed for IL-1β by ELISA.

[5] = tested on: bleomycin-induced macrophage activation; test: Intratracheal bleomycin, therapeutic dosing: BAL macrophage size and IL-1β; assay type: in vivo, mouse; conditions: 3 mg/kg oral once a day from day 3 after bleomycin
Description: To further support our ex vivo macrophage findings, we used a therapeutic paradigm where mice were challenged in vivo with intratracheal instillation of bleomycin. […] The fluid was centrifuged and supernatant and cell fractions analyzed.
Mice were dosed until day 14 at which point BAL fluid was collected. BAL was centrifuged and cells were transferred to culture plates and incubated overnight at 37 °C. Plates were spun down and supernatant and cell pellet analysed separately. Supernatant was analyzed for IL-1β as described for mouse above. The cell pellet for each condition was plated at 3 × 10^3 cells/well in black clear bottom 96-well plates. After settling, cells were fixed in formalin and immunostained against CD68 and detected with a donkey anti-rat Alexa 488 conjugated antibody. Image acquisition and analysis was performed using a Nikon A1R confocal microscope and NIS Elements software.

[6] = tested on: human precision cut lung slices from donors with pulmonary fibrosis; test: Fibrotic marker mRNA (qPCR) in cryopreserved PCLS from donors with pulmonary fibrosis; assay type: cell-based; conditions: PIPE-791, 6 days, 6 donors
[7] = set-up: method as in NCT05983939; conditions: Phase I; ref NCT05983939; cited from earlier work
LPAR1 = LPAR1 (Homo sapiens, UniProt Q92633); test: LPA-induced calcium mobilization in transiently transfected HEK293T cells; assay type: cell-based; set-up: host or cells: HEK293T; conditions: 3 h preincubation; LPA at EC80 5 µM
Description: We had previously assessed selectivity against LPAR2 and 3 [11]. […] Human LPAR1-6 plasmids were each transiently transfected into HEK293T cells and the EC80 (effective concentration producing 80% maximal effect) for LPA activation empirically determined. Selectivity was then tested in a concentration response paradigm using a 3 h preincubation followed by LPA-induced calcium mobilization.
Plasmids containing human LPAR1-6 were obtained from Origene (Rockville, MD) and maxiprepped at Eton Biosciences (San Diego, CA). Transfection mix was prepared by adding Fugene 6 transfection mix to serum free media and 0.1 µg plasmid. After a 20 m incubation, HEK293T cells (ATCC, Manassas VA) were lifted with Accutase and added to the Fugene mix at a final concentration of 0.5 × 10^4 cells/well. Cells were then plated on black clear bottom 96-well plates and incubated overnight in a 37 °C, 5% CO2 incubator. […] During the last hour of incubation, media was removed and replaced with Fluo-4 NW calcium assay dye prepared as per manufacturer’s recommendations in assay buffer. Agonist plates containing LPA were prepared for individual receptor subytpes using their respective EC80. Calcium mobilization was measured as per manufacturer’s directions on a Flexstation 3 (Molecular Devices, San Jose, CA).

Chain of LPAR1 (Q92633 whole entry): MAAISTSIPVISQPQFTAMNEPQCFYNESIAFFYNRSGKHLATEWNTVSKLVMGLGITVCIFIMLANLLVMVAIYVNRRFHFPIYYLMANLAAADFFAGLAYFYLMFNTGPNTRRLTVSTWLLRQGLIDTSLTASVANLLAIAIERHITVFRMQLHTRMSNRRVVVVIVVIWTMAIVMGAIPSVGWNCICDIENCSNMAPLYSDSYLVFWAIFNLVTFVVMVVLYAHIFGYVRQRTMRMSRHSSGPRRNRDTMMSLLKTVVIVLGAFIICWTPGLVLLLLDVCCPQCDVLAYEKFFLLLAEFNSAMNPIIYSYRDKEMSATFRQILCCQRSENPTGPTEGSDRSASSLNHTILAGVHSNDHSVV

## COc1ccc(NC(=O)N(c2ccccc2C(C)C)C2CCC(C(=O)O)CC2)c(OC(F)F)n1 (stereo not drawn) [PIPE-791]
[1]
  IC50: 1.5 nM
[2]; LPA stimulation
  COL1A1 induction: significantly inhibited
  αSMA expression: significantly inhibited
[2]; TGFβ1 stimulation
  COL1A1 induction: significantly inhibited
  αSMA expression: significantly inhibited
[3]
  plasma unbound concentration at 24 h post-dose versus calcium mobilization IC50: exceeded the in vitro calcium mobilization IC50
[4]
  IL-1β levels of isolated alveolar macrophages: comparable to baseline
[5]
  reduction of IL-1β in BAL supernatant: 69.2%
[5]; BAL cells
  reduction of macrophage cell size (CD68 area): 56%
[6]
  slice health as measured by LDH in the media: no significant effect on slice health
[7]
  safety and tolerability: safe and well-tolerated
LPAR1
  IC50: 8 nM

From publication PMC12400753 (Respiratory Research, 2025)
